According to patent EP4715056A1, “BIO-BASED TRANS-ACONITATE, PREPARATION METHOD THEREFOR AND USE THEREOF” (Qingdao Institute of Bioenergy and Bioprocess Technology, …, priority 2023, dated 2024):
Where a name gives a salt, the structure may show the parent alone. Read-outs that look alike come from different tables or passages of the source.

Tests used:
[1] = tested on: Aspergillus terreus engineered strains; assay type: cell-based; settings: 96 hours of shake flask fermentation
Method: Additional supplementation experiments were performed on differential amino acids and vitamins between high-yield and low-yield corn steep liquor powders. Based on the high-yield corn steep liquor powder medium, fermentation verification was performed by adding differential amino acid components and vitamin components separately. Each group was set up with three parallel replicates. After 96 hours of shake flask fermentation, the supernatant of the fermentation broth was collected for quantitative analysis using HPLC detection.

[2] = tested on: Aspergillus terreus engineered strains; assay type: cell-based; settings: 30 L fermenter
Method: Meanwhile, the medium without added amino acids was used as a control to compare the fermentation yields. […] The primary and secondary seed media were: 150 g/L glucose monohydrate, 4 g/L ammonium sulfate, 2 g/L corn steep liquor powder, 0.4 g/L magnesium sulfate heptahydrate, 0.06 g/L ferrous sulfate heptahydrate, 0.01 g/L diammonium hydrogen phosphate, 40 mg/L zinc sulfate, 40 mg/L copper sulfate, and 0.5 g/L sodium chloride; no L-Trp or L-Met was added to the primary and secondary media. The tertiary fermentation medium was the same as the secondary seed medium, but L-Trp or L-Met was added. The control parameters of the 30 L fermenter were as follows: 300 to 480 rpm, dissolved oxygen (DO) level maintained at 25% to 29%, aeration rate at 20 L/min; DO control was linked during agitation. The control parameters of the 100 L fermenter were as follows: 250 to 280 rpm, DO controlled from 25 to 30% during agitation linkage, and aeration rate controlled f […].

[3] = tested on: Aspergillus niger engineered strains; settings: shake flask, addition amount 0.12 g/L
Method: Nutritional factor optimization experiments were performed on the trans-Aconitic acid-producing Aspergillus niger engineered strains constructed in Example 1. Amino acid components were added for fermentation verification using the high-yield corn steep liquor powder medium as the basis.

[4] = tested on: Aspergillus niger engineered strains; settings: 30 L fermenter, after 132 h of fermentation
Method: Fermentation was performed in a 30 L fermenter using the medium added with L-methionine. The control parameters were as follows: 300 to 480 rpm, DO level maintained at 25 to 29%, and aeration rate controlled at 20 L/min.

[5] = Hardness (Shore hardness tester, GB/T 531-2008); assay type: physicochemical; settings: composite: 100 parts PVC resin (K value 60, polydispersity index 4), 30 parts plasticizer, 2 parts oxidized polyethylene wax, 5 parts octyltin maleate
[6] = Compatibility (water value method); assay type: physicochemical; settings: water value of the plasticizer, Table 9
[7] = Volatility loss rate (activated carbon method, HG/T 4458-2012); assay type: physicochemical; settings: PVC composite with 30 parts plasticizer; 70°C for 24 h
Method: (§1) The above plasticizer is the mixed aconitates prepared in Example 37, and composite materials are prepared according to the above weight ratio and preparation method respectively. At the same time, dioctyl phthalate, tributyl citrate, tributyl aconitate and triisooctyl aconitate are respectively selected as plasticizers to prepare composite materials according to the above weight ratio and preparation method. The test method is the same as that in Test 2 except for the following: • 1. Volatility loss rate: tests were performed in accordance with HG/T 4458-2012 Plastics - Determination of Plasticizer Loss by Activated Carbon Method at a test temperature of 70°C for 24 h. • 2. Water extraction rate: tests were performed in accordance with the standard ISO 175-2011 Test Method for Determination of Immersion Effects of Plastics in Liquid Chemicals at room temperature for 72 h, with deionized water as the extraction solvent. • 3. Ethanol extraction rate: tests were performed in accordance with the standard ISO 175-2011 Test Method for Determination of Immersion Effects of Plastics in Liquid Chemicals at room temperature for 72 h, with ethanol as the extraction solvent. • 4. Petroleum ether extraction rate: tests were performed in accordance with the standard ISO 175-2011 Test Method for Determination of Immersion Effects of Plastics in Liquid Chemicals at room temperature for 72 h, with petroleum ether as the extraction solvent. • 5. Migration rate: tests were performed in accordance with HG/T 4458-2012 Determination of Plasticizer Migration in Plastics at a test temperature of 50°C for 48 h. The materials of absorbent sheets are polyethylene (PE) without additives and standard natural rubber (NR).

[8] = Water extraction rate (ISO 175-2011); assay type: physicochemical; settings: PVC composite with 30 parts plasticizer; room temperature, 72 h, deionized water
Method: as §1

[9] = Ethanol extraction rate (ISO 175-2011); assay type: physicochemical; settings: PVC composite with 30 parts plasticizer, room temperature, 72 h
Method: as §1

[10] = Petroleum ether extraction rate (ISO 175-2011); assay type: physicochemical; settings: PVC composite with 30 parts plasticizer, room temperature, 72 h
Method: as §1

[11] = Plasticizer migration rate to PE (HG/T 4458-2012); assay type: physicochemical; settings: PVC composite with 30 parts plasticizer; 50°C for 48 h
Method: as §1

[12] = Plasticizer migration rate to NR (HG/T 4458-2012); assay type: physicochemical; settings: PVC composite with 30 parts plasticizer; 50°C for 48 h
Method: as §1

[13] = Tensile properties (GB/T 1040-2006): tensile modulus at 100%, elongation at break, elastic modulus; assay type: physicochemical; settings: PVC composite with 30 parts plasticizer, Table 9
[14] = Glass transition temperature (dynamic mechanical analyzer); assay type: physicochemical; settings: PVC composite with 30 parts plasticizer, Table 10

For `CSCC[C@H](N)C(=O)O` [L-methionine], the “increase of the yield of trans-Aconitic acid” value (from here on “increase”) ([1]; addition of 0.115 g/L) was 86.5%, the “final fermentation yield of trans-Aconitic acid” value ([2]; 0.115 g/L added (26 g/L without adding amino acid)) was 65 g/L and the “yield of the recombinant engineered strains” value [3] was 31.76 g/L. The TAA yield [4] was 60 g/L.
For `N[C@@H](Cc1c[nH]c2ccccc12)C(=O)O` [L-tryptophan], the “increase” value ([1]; addition of 0.099 g/L) was 46.2%, the “increase” value ([1]; addition of 0.2 g/L) was 20.7% and the “yield of trans-Aconitic acid” value ([2]; 0.099 g/L added, at 60 h (26 g/L without adding amino acid)) was 41.95 g/L.
For `CCCCOC(=O)C=C(CC(=O)OCCCC)C(=O)OCCCC` [Tributyl aconitate, tributyl aconitate], the “Hardness/Shore D” value [5] was 45 Shore D, the Compatibility [6] was 16.7 mL and the Volatility loss rate [7] was 1.08%. The Water extraction rate [8] was 0.36%, the Ethanol extraction rate [9] was 3.71% and the “Petroleum ether extraction rate” value [10] was 6.03%. For the same compound, the “Migration rate to PE” value [11] was 1.26%, the “Migration rate to NR” value [12] was 1.31% and the Elastic modulus [13] was 130.5 MPa. For the same compound, the Elongation at break [13] was 257.4%, the “Tensile modulus at 100%” value [13] was 8.2 MPa and the Tg [14] was 28.1 °C.
For `CCCCOC(=O)CC(O)(CC(=O)OCCCC)C(=O)OCCCC` [Tributyl citrate, tributyl citrate], the “Hardness/Shore D” value [5] was 77 Shore D, the Compatibility [6] was 14.3 mL and the Volatility loss rate [7] was 3.87%. For the same compound, the Water extraction rate [8] was 1.16%, the Ethanol extraction rate [9] was 4.96% and the “Petroleum ether extraction rate” value [10] was 8.91%. The “Migration rate to PE” value [11] was 2.12%, the “Migration rate to NR” value [12] was 2.71% and the Elastic modulus [13] was 426.5 MPa. The Elongation at break [13] was 146.3%, the “Tensile modulus at 100%” value [13] was 13.6 MPa and the Tg [14] was 38.3 °C.
With `CC(C)CCCCCOC(=O)C=C(CC(=O)OCCCCCC(C)C)C(=O)OCCCCCC(C)C` [Triisooctyl aconitate, triisooctyl aconitate] the “Hardness/Shore D” value [5] was 71 Shore D, the Compatibility [6] was 10.9 mL and the Volatility loss rate [7] was 0.38%. The Water extraction rate [8] was 0.14%, the Ethanol extraction rate [9] was 14.52% and the “Petroleum ether extraction rate” value [10] was 16.44%. For the same compound, the “Migration rate to PE” value [11] was 0.13%, the “Migration rate to NR” value [12] was 0.18% and the Elastic modulus [13] was 397.1 MPa. The Elongation at break [13] was 156.3%, the “Tensile modulus at 100%” value [13] was 16.1 MPa and the Tg [14] was 43.5 °C.
